Our source for the IC50 and inhibition values is ChEMBL document CHEMBL1136903, “Spiroimidazolidinone NPC1L1 inhibitors. 1: Discovery by 3D-similarity-based virtual screening” (Bioorg Med Chem Lett, 2009).

As usually defined, the IC50 is the concentration that gives 50% inhibition. A lower IC50 goes with inhibition by little substance.

Experiment [1] in a line: Displacement of [35S](2S,3S,4S,5R,6S)-6-(4-((2S,3R)-3-((S)-3-(4-fluorophenyl)-3-hydroxypropyl)-1-(4-(3-(methylsulfonamido)prop-1-ynyl)phenyl)-4-oxoazetidin-2-yl)phenoxy)-3,4,5-trihydroxytetrahydro-2H-pyran-2-carboxylic acid from NPC1L1 in hamster enterocyte brush border membrane. Set-up: species or system Cricetinae. A general note: Displacement assays read how much labelled ligand stays bound in the presence of the test substance.

The test system of experiment [2] is Mus musculus. Kind of experiment: Inhibition of plasma [3H]cholesterol absorption in C57BL/6 mouse at 0.2 ml in 0.25% methocel suspension, po dosed 30 mins before [3H]cholesterol administration measured after 1.5 to 5 hrs. It counts as functional, organism-based.
Experiment [3] concerns Mus musculus. Briefly: Inhibition of liver [3H]cholesterol absorption in C57BL/6 mouse at 0.2 ml in 0.25% methocel suspension, po dosed 30 mins before [3H]cholesterol administration measured after 1.5 to 5 hrs. Type of experiment: functional, organism-based.

SMILES strings stand for the structures. The source made the active and inactive calls. The calls are words filed in the database; no cut-off is given here.

The compound `O=C(O)[C@H]1O[C@@H](Oc2ccc([C@@H]3[C@@H](CC[C@H](O)c4ccc(F)cc4)C(=O)N3c3ccc(F)cc3)cc2)[C@H](O)[C@@H](O)[C@@H]1O` displayed an IC50 in experiment [1] of 0.65 µM. Turning to `CS(=O)(=O)NCC#CN1C(=O)[C@H](CC[C@H](O)c2ccc(F)cc2)[C@H]1c1ccc(O[C@@H]2O[C@H](C(=O)O)[C@@H](O)[C@H](O)[C@H]2O)cc1`, in experiment [1], the IC50 stood at 0.022 µM.

`O=C([C@@H]1C[C@@H](c2ccccc2)CN1C(=O)c1ccccc1)N1CCC2(C=Cc3ccccc32)CC1`: the IC50 in experiment [1] is 62 µM. With `CC(C)(C)c1ccc(C(=O)N2CCC3(CC2)C(=O)N(CC(=O)N2CCCCC2)CN3c2ccccc2)cc1`, in experiment [1], the IC50 is 41 µM. Also, the inhibition result in the experiment with Mus musculus [2] and in the experiment with Mus musculus [3] was “inactive” each time.
